Entries after “also recorded” stand apart in the source; their conditions may differ.
Target: eIF4A (Homo sapiens, UniProt P60842)
Experiment: RNA-stimulated malachite green ATPase assay
Type: biochemical
Design: 6xHis with TEV protease site (N, cleaved yes); made in house; host or cells: E. coli BL21-CodonPlus
Details: comparison within the series
Protocol: Human eIF4A protein was produced recombinantly and a greater than 100,000-compound screen for inhibitors was completed using a malachite green ATPase assay (FIG. 11A). […] A stable mixture of yeast RNAs was added in an effort to improve this system and create a more biologically relevant eIF4A assay. eIF4A ATPase activity was accelerated without a statistically significant increase in the background signal in the presence of this RNA (FIG. 11B), and the new conditions gave excellent statistical parameters in a 384-well plate format (FIG. 11C).
ATPase assay. Recombinant WT or mutant eIF4A was added to a clear bottom 384 well plate (Greiner) in ATPase buffer (20 mM Tris pH 7.4, 80 mM KCl, 2.5 mM MgCl2, 1 mM DTT, 1% glycerol). Compounds were added and the plate was incubated at 37° C. for 20 min. ATP/RNA solution was added to afford a 20 μL per well reaction volume with 750 nM eIF4A, 250 μM ATP, and 0.25 mg/mL Yeast RNA (Sigma) for the initial screen and dose responses, and varying concentrations of ATP and RNA for the kinetic assays. The plate was incubated for 4 h at 37° C. for the initial screen and dose responses, and at seven time points (1 hour-7 hours) for kinetic assays. 0.04% v/v (final concentration) Tween-20 was added to a Malachite Green solution, and the Malachite Green (40 μL per well) was added. The solution was incubated for 5 minutes at room temperature and Absorbance at 660 nm was read on a SpectraMax iD5 plate reader (Molecular Devices).

Chain of eIF4A (P60842 whole entry): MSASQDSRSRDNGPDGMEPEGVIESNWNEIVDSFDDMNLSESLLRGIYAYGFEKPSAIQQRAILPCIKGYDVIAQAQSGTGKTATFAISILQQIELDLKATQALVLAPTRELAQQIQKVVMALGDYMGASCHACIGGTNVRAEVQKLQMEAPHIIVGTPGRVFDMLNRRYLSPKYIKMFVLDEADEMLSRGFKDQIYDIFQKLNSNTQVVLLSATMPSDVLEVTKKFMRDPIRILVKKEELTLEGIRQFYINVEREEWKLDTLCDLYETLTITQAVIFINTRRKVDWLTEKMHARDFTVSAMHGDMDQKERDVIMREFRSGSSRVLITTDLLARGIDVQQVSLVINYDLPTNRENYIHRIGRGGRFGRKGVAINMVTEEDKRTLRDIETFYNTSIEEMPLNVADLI

SMILES	potency in the eIF4A ATPase assay (in words)
O=C(O)c1cc(-c2ccc(-c3cccc(-c4ccccc4)c3)o2)nc2ccc([N+](=O)[O-])cc12 [Compound 51, 2-(5-([1,1′-biphenyl]-3-yl)furan-2-yl)-6-nitroquinoline-4-carboxylic acid]	less potent than compound 28
CCCCc1ccc(-c2ccc(-c3cc(C(=O)O)c4c(Cl)cccc4n3)o2)cc1 [Compound 4, 2-(5-(4-butylphenyl)furan-2-yl)-5-chloroquinoline-4-carboxylic acid]	large drop in potency
O=C(O)c1cc(-c2ccc(-c3ccc4c(c3)OCO4)o2)nc2ccc([N+](=O)[O-])cc12 [Compound 48, 2-(5-(benzo[d][1,3]dioxol-5-yl)furan-2-yl)-6-nitroquinoline-4-carboxylic acid]	lost all potency
CCCCc1ccc(-c2ccc(-c3cc(C(=O)O)c4ccc(C(F)(F)F)cc4n3)o2)cc1 [Compound 26, 2-(5-(4-butylphenyl)furan-2-yl)-7-(trifluoromethyl)quinoline-4-carboxylic acid]	performed better in the ATPase assay than molecules with electron-donating substitutions
CCCCc1ccc(-c2cncc(-c3cc(C(=O)O)c4cc([N+](=O)[O-])ccc4n3)c2)cc1 [Compound 35, 2-(5-(4-butylphenyl)pyridin-3-yl)-6-nitroquinoline-4-carboxylic acid]	lost potency altogether
CCCCc1ccc(-c2ccc(-c3cc(C(=O)O)c4ccccc4n3)o2)cc1 [Compound 3, 2-(5-(4-butylphenyl)furan-2-yl)quinoline-4-carboxylic acid]	much less potent than compound 1
CCCCc1ccc(-c2ccc(-c3cc(C(=O)O)c4cc(I)ccc4n3)o2)cc1 [Compound 7, 2-(5-(4-butylphenyl)furan-2-yl)-6-iodoquinoline-4-carboxylic acid]	moderate losses of potency compared to the bromine substituent
CCCCc1ccc(-c2ccc(-c3cc(C(=O)O)c4cc(OC(F)(F)F)ccc4n3)o2)cc1 [Compound 23, 2-(5-(4-butylphenyl)furan-2-yl)-6-(trifluoromethoxy)quinoline-4-carboxylic acid]	much less potent than compound 21
CCCCc1ccc(-c2ccc(-c3cc(C(=O)O)c4ccc(F)cc4n3)o2)cc1 [Compound 8, 2-(5-(4-butylphenyl)furan-2-yl)-7-fluoroquinoline-4-carboxylic acid]	moderate potency
CCCCc1ccc(-c2ccc(-c3cc(C(=O)O)c4cc(Cl)ccc4n3)o2)cc1 [Compound 6, 2-(5-(4-butylphenyl)furan-2-yl)-6-chloroquinoline-4-carboxylic acid]	moderate losses of potency compared to the bromine substituent
CCCCc1ccc(-c2ccc(-c3cc(C(=O)O)c4ccc(Br)cc4n3)o2)cc1 [Compound 10, 7-bromo-2-(5-(4-butylphenyl)furan-2-yl)quinoline-4-carboxylic acid]	moderate potency
O=C(O)c1cc(-c2ccc(-c3cccc4ccccc34)o2)nc2ccc([N+](=O)[O-])cc12 [Compound 49, 2-(5-(naphthalen-1-yl)furan-2-yl)-6-nitroquinoline-4-carboxylic acid]	about four-fold less potent than compound 28
CCCCc1ccc(-c2ccc(-c3cc(C(=O)O)c4cccc(C(F)(F)F)c4n3)o2)cc1 [Compound 27, 2-(5-(4-butylphenyl)furan-2-yl)-8-(trifluoromethyl)quinoline-4-carboxylic acid]	performed better in the ATPase assay than molecules with electron-donating substitutions; also recorded: about two-fold better than compound 26
CCCCc1ccc(-c2ccc(-c3cc(C(=O)O)c4cc([N+](=O)[O-])ccc4n3)[nH]2)cc1 [Compound 32, 2-(5-(4-butylphenyl)-1H-pyrrol-2-yl)-6-nitroquinoline-4-carboxylic acid]	large drop in potency
CCCCc1ccc(-c2cccc(-c3cc(C(=O)O)c4cc([N+](=O)[O-])ccc4n3)c2)cc1 [Compound 33, 2-(4′-butyl-[1,1′-biphenyl]-3-yl)-6-nitroquinoline-4-carboxylic acid]	drop in potency
CCCCc1ccc(-c2ccc(-c3cc(C(=O)O)c4cccc(Cl)c4n3)o2)cc1 [Compound 11, 2-(5-(4-butylphenyl)furan-2-yl)-8-chloroquinoline-4-carboxylic acid]	less potent than bromine (12)
CC(C)(C)OC(=O)Nc1ccc(-c2ccc(-c3cc(C(=O)O)c4cc([N+](=O)[O-])ccc4n3)o2)cc1 [Compound 45, 2-(5-(4-((tert-butoxycarbonyl)amino)phenyl)furan-2-yl)-6-nitroquinoline-4-carboxylic acid]	low potency
CCCCCc1ccc(-c2ccc(-c3cc(C(=O)O)c4cc([N+](=O)[O-])ccc4n3)o2)cc1 [Compound 40, 6-nitro-2-(5-(4-pentylphenyl)furan-2-yl)quinoline-4-carboxylic acid]	no more potent than 28
O=C(O)c1cc(-c2ccc(-c3ccccc3)o2)nc2ccc([N+](=O)[O-])cc12 [Compound 38, 6-nitro-2-(5-phenylfuran-2-yl)quinoline-4-carboxylic acid]	drastic loss in potency
CC(C)(C)OC(=O)Nc1cccc(-c2ccc(-c3cc(C(=O)O)c4cc([N+](=O)[O-])ccc4n3)o2)c1 [Compound 44, 2-(5-(3-((tert-butoxycarbonyl)amino)phenyl)furan-2-yl)-6-nitroquinoline-4-carboxyli c acid]	low potency
O=C(O)c1cc(-c2ccc(-c3ccc(-c4ccccc4)cc3)o2)nc2ccc([N+](=O)[O-])cc12 [Compound 50, 2-(5-([1,1′-biphenyl]-4-yl)furan-2-yl)-6-nitroquinoline-4-carboxylic acid]	less potent than compound 28; also recorded: more potent than meta-substituted 51
CCCCc1ccc(-c2ccc(-c3cc(C(=O)O)c4cccc([N+](=O)[O-])c4n3)o2)cc1 [Compound 30, 2-(5-(4-butylphenyl)furan-2-yl)-8-nitroquinoline-4-carboxylic acid]	over three-fold less potent than compound 28
CCCCc1ccc(-c2cccc(-c3cc(C(=O)O)c4cc([N+](=O)[O-])ccc4n3)n2)cc1 [Compound 34, 2-(6-(4-butylphenyl)pyridin-2-yl)-6-nitroquinoline-4-carboxylic acid]	drop in potency
CCCCc1ccc(-c2ccc(-c3cc(C(=O)O)c4ccc(OC)cc4n3)o2)cc1 [Compound 22, 2-(5-(4-butylphenyl)furan-2-yl)-7-methoxyquinoline-4-carboxylic acid]	neither were more potent than earlier molecules in the series
CCCCc1ccc(-c2ccc(-c3cc(C(=O)O)c4cc([N+](=O)[O-])ccc4n3)cn2)cc1 [Compound 37, 2-(6-(4-butylphenyl)pyridin-3-yl)-6-nitroquinoline-4-carboxylic acid]	much less potent than 28
CCCCc1ccc(-c2ccc(-c3cc(C(=O)O)c4cc([N+](=O)[O-])ccc4n3)s2)cc1 [Compound 31, 2-(5-(4-butylphenyl)thiophen-2-yl)-6-nitroquinoline-4-carboxylic acid]	large drop in potency
CCCCc1ccc(-c2ccc(-c3cc(C(=O)O)c4cc(OC)ccc4n3)o2)cc1 [Compound 21, 2-(5-(4-butylphenyl)furan-2-yl)-6-methoxyquinoline-4-carboxylic acid]	much more potent than 7-methoxy (22)
CCCCc1ccc(-c2ccc(-c3cc(C(=O)O)c4cc([N+](=O)[O-])ccc4n3)cc2)cc1 [Compound 36, 2-(4′-butyl-[1,1′-biphenyl]-4-yl)-6-nitroquinoline-4-carboxylic acid]	much less potent than 28

Same assay, conditions: relative to compound 1

SMILES	fold less potent than compound 1 in the ATPase assay
CCCCc1ccc(-c2ccc(-c3cc(C(=O)OCC)c4cc(Br)ccc4n3)o2)cc1 [Compound 2, ethyl 6-bromo-2-(5-(4-butylphenyl)furan-2-yl)quinoline-4-carboxylate]	about 5 fold

Same assay, conditions: relative to compound 28

SMILES	fold less potent than 28 in the ATPase assay
CCCc1ccc(-c2ccc(-c3cc(C(=O)O)c4cc([N+](=O)[O-])ccc4n3)o2)cc1 [Compound 39, 6-nitro-2-(5-(4-propylphenyl)furan-2-yl)quinoline-4-carboxylic acid]	about 5 fold
